Here are results for 34 molecules from article PMC4270767 (PLoS ONE, 2014).

Values joined by “and” are separate entries in the source; they are usually repeats but may differ in a detail not shown here. Equal entries are not always repeated. Structures can show the parent of a compound that is named as a salt. Where two headings read alike, the source gives them in different places.

In assay [1] the target is T1, MtSerB2 (Mycobacterium tuberculosis, UniProt O53289). Kind of assay: Inhibition of MtSerB2 hydrolysis of L-phosphoserine (malachite green). In kind it is biochemical, M. tuberculosis.
T1 sequence (O53289 whole entry, the tested form may be a part): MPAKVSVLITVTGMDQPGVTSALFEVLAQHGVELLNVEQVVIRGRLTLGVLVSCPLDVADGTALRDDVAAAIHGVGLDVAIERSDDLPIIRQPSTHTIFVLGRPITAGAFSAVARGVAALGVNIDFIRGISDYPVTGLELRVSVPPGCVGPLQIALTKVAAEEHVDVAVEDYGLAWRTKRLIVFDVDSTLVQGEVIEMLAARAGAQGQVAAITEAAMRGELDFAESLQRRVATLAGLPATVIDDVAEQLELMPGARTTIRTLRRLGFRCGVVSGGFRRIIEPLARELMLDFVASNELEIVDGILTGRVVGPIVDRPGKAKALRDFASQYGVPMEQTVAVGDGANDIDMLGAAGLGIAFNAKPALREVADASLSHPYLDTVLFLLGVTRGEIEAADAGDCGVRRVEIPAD
The target of assay [2] is PSP domain of MtSerB2 (PSPD) (Mycobacterium tuberculosis, UniProt O53289). Kind of assay: biochemical. Also noted: species or system M. tuberculosis.
Chain of PSP domain of MtSerB2 (PSPD) (O53289 165-409 limits assumed): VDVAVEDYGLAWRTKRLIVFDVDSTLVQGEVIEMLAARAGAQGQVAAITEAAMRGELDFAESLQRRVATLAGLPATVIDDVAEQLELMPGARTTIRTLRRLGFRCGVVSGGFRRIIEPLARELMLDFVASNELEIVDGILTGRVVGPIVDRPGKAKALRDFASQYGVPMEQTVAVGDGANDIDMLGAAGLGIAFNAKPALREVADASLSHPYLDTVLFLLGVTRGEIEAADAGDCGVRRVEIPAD
In assay [3] the target is T1, MtSerB2. Nature of the assay: Effects of added amino acids on MtSerB2 phosphatase activity. The conditions noted are these: for % activation or IC50: amino acids without effect. The class given is biochemical, M. tuberculosis.
Assay [4] has as its target T1, MtSerB2. The class given is biochemical, M. tuberculosis. The note with it: for effect of divalent cation on MtSerB2 activity: relative to Mg^2+.
In assay [5] the target is T1, MtSerB2. The conditions noted are these: Superdex S200, samples pre-equilibrated 1 h.

In general, IC50 refers to the concentration at which inhibition is half-maximal.

Take `NC(CP(=O)(O)O)C(=O)O` (racemic) [D,L- AP3, DL-2-Amino-3-Phosphonopropionic Acid]: the “Imax (%) SerB2” value in assay [1] amounted to 22%. The “Imax (%) PSPD” value in assay [2] amounted to 19%.

Turning to `C[C@H](N)C(=O)O` [Ala], in assay [3], the Activation factor entry is reported as “Inhibition” and half-maximal inhibition (IC50) was put at 3830 ± 234 µM.

As for `N=C(N)NCCC[C@H](N)C(=O)O` [Arg], in assay [3], the Activation factor result is on record as “Inhibition” and the IC50 came to 632 ± 14 µM.

On to `NC(=O)C[C@H](N)C(=O)O` [Asn], for which, in assay [3], the Activation factor entry is recorded as “Non modulator” and the “% activation or IC50” value was “No Change”.

Consider `N[C@@H](CC(=O)O)C(=O)O` [Asp], for which, in assay [3], the Activation factor result was “Inhibitor” and the IC50 amounted to 1620 ± 84 µM.

On to `[Ca+2].[Cl-].[Cl-]` [Ca^2+], for which the “effect of divalent cation on MtSerB2 activity” value (“effect of divalent cation” for short) in assay [4] was “deactivates”.

For `CN(C)CCCN1c2ccccc2Sc2ccc(Cl)cc21` [Chlorpromazine, Chlorpromazine Hydrochloride], in assay [1], the “Imax (%) SerB2” value turned out to be 70%, the “Inhibition of phosphatase activity” value is on record as “inhibition at nanomolar concentrations” and the type of inhibition entry is “non-competitive”. In addition, in assay [1] (read-out: IC50 (µM) SerB2), the IC50 was 0.92 ± 0.1 µM. Moreover, the “Imax (%) PSPD” value in assay [2] is 95%. Besides, in assay [2] (IC50 (µM) PSPD), the IC50 is ~6.25 µM and 6.25 µM.

As to `[Co+2]` [Co^2+], in assay [4], the “effect of divalent cation” value is reported as “deactivates”.

In the case of `N[C@@H](CS)C(=O)O` [Cys], in assay [3], the Activation factor result is “Non Modulator” and the “% activation or IC50” value is “No Change”.

For `O=C(O)CN(CCN(CC(=O)O)CC(=O)O)CC(=O)O` [EDTA], the “Inhibition of phosphatase activity” value in assay [1] is “decrease of enzyme activity”.

Consider `NC(=O)CC[C@H](N)C(=O)O` [Gln], for which, in assay [3], the Activation factor entry is “Inhibition” and the IC50 came out at 432 ± 13 µM.

For `N[C@@H](CCC(=O)O)C(=O)O` [Glu], in assay [3], the Activation factor result is given as “Inhibition” and the IC50 was 363 ± 20 µM.

`NCC(=O)O` [Gly]: in assay [3], the Activation factor result is “Inhibition” and the IC50 is 381 ± 15 µM.

As to `N[C@@H](Cc1c[nH]cn1)C(=O)O` [His], in assay [3], the Activation factor entry is reported as “Inhibition” and inhibition was half-maximal at 4860 ± 218 µM (IC50).

On to `CC[C@H](C)[C@H](N)C(=O)O` [Ile], for which, in assay [3], the Activation factor result is listed as “Non modulator” and the “% activation or IC50” value is given as “No Change”.

As for `N[C@@H](CP(=O)(O)O)C(=O)O` [L- AP3, L-2-amino-3-phosphonopropionate], the “Imax (%) SerB2” value in assay [1] turned out to be 23%. In addition, the “Imax (%) PSPD” value in assay [2] turned out to be 21%.

For `N[C@@H](CO)C(=O)O` [L-serine], in assay [1], the midpoint of inhibition, the IC50, lay at 0.78 ± 0.08 µM and the “Imax (%) SerB2” value came out at 65%. Further, the “Imax (%) PSPD” value in assay [2] was determined as 70%. This molecule displayed an IC50 in assay [2] (IC50 (µM) PSPD) of 824 ± 39 µM. Further, the Activation factor result in assay [3] was “Inhibition”. The “molar ratio of L-serine and MtSerB2 at shift of dimer to tetramer (higher order oligomer)” value in assay [5] is approximately 0.8.

Turning to `CC(C)C[C@H](N)C(=O)O` [Leu], in assay [3], the Activation factor result is recorded as “Non modulator” and the “% activation or IC50” value is “No Change”.

As for `NCCCC[C@H](N)C(=O)O` [Lys], in assay [3], the “% activation” value amounted to 40% and the Activation factor entry was “Activation”.

In the case of `CSCC[C@H](N)C(=O)O` [Met], in assay [3], the Activation factor result is recorded as “Non modulator” and the “% activation or IC50” value is recorded as “No Change”.

Regarding `[Mn+2]` [Mn^2+], the “effect of divalent cation” value in assay [4] is listed as “deactivates”.

For the molecule `[F-].[Na+]` [NaF, Sodium fluoride], the “Imax (%) SerB2” value in assay [1] came to 55%. In assay [1], the “Inhibition of phosphatase activity” value is “decrease of enzyme activity”. Moreover, the IC50 in assay [1] (read-out: IC50) is approximately 3000 µM; in assay [1] (read-out: IC50 (µM) SerB2), 3110 ± 155 µM; in assay [2] (read-out: IC50 (µM) PSPD), 2780 ± 216 µM. The “Imax (%) PSPD” value in assay [2] came to 72%.

With `[Ni+2]` [Ni^2+], the “effect of divalent cation” value in assay [4] was “deactivates”.

For the molecule `C=C1[C@@H](O)[C@@H]2O[C@]3(CC[C@H](/C=C/[C@@H](C)[C@@H]4CC(C)=C[C@@]5(O[C@H](C[C@@](C)(O)C(=O)O)CC[C@H]5O)O4)O3)CC[C@H]2O[C@@H]1[C@@H](O)C[C@H](C)[C@H]1O[C@@]2(CCCCO2)CC[C@H]1C` [Okadaic acid], in assay [1], the “Imax (%) SerB2” value turned out to be 14% and the “Inhibition of phosphatase activity” value is listed as “not able to inhibit the phosphatase activity”. Besides, the “Imax (%) PSPD” value in assay [2] was 22%.

For `N[C@@H](Cc1ccccc1)C(=O)O` [Phe], the Activation factor result in assay [3] is listed as “Activation”.

Regarding `C[N+](C)(C)CCOP(=O)(O)O` [Phosphorylcholine], the “Imax (%) SerB2” value in assay [1] was 10%. In addition, the “Imax (%) PSPD” value in assay [2] was determined as 14%.

Consider `O=C(O)[C@@H]1CCCN1` [Pro], for which, in assay [3], the Activation factor result is recorded as “Inhibition” and the IC50 was more than 5000 µM.

`C[C@@H](O)[C@H](N)C(=O)O` [Thr]: in assay [3], the Activation factor result is “Inhibition” and the IC50 stood at 3460 ± 206 µM.

Take `N[C@@H](Cc1c[nH]c2ccccc12)C(=O)O` [Trp]: in assay [3], the Activation factor entry is given as “Inhibition” and half-maximal inhibition (IC50) was put at 322 ± 23 µM.

Regarding `N[C@@H](Cc1ccc(O)cc1)C(=O)O` [Tyr], the Activation factor result in assay [3] was “Activation”.

Turning to `CC(C)[C@H](N)C(=O)O` [Val], in assay [3], the Activation factor entry is on record as “Inhibition” and the IC50 came out at 3660 ± 212 µM.

For the molecule `[Zn+2]` [Zn^2+], in assay [4], the “concentration level of inhibition” value is “inhibits the activity at nanomolar levels” and the “effect of divalent cation” value was “deactivates”.

In the case of `C[N+](C)(C)CCOP(=O)([O-])OCC(O)CO` (stereo not drawn) [α-GPC, α-Glycerophosphorylcholine], the “Imax (%) SerB2” value in assay [1] was found to be 35%. Besides, in assay [2], the “Imax (%) PSPD” value is 31%.

On to Sodium Vanadate, for which, in assay [1], the “Imax (%) SerB2” value came out at 88%. Further, the “Imax (%) PSPD” value in assay [2] is 93%.
